Laboratory results as given in the supplement of paper PMC10307832.

Experiments:
Assay in all cases: relative viability (nuclei count vs DMSO), 5 days (fraction); higher = more cells survive
Bosutinib + OSI-027 = compound: COc1cc(Nc2c(C#N)cnc3cc(OCCCN4CCN(C)CC4)c(OC)cc23)c(Cl)cc1Cl [Bosutinib] + COc1cccc2cc(-c3nc([C@H]4CC[C@H](C(=O)O)CC4)n4ncnc(N)c34)[nH]c12 [OSI-027] (partner 0.5 µM)
Method in brief: (§1)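 Lung cancer cell lines were pin-tool dosed in 1536-well plates on the day after seeding, with either a lone drug or a fixed anchor-drug dose plus five library-drug doses (not always all listed) in √10 steps. Nuclei were counted on 4× images after 5 days. Relative viability is the ratio of treated-well to vehicle-well nuclei counts, with each value a median of duplicate plates.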

Bosutinib + Pictilisib = compound: COc1cc(Nc2c(C#N)cnc3cc(OCCCN4CCN(C)CC4)c(OC)cc23)c(Cl)cc1Cl [Bosutinib] + CS(=O)(=O)N1CCN(Cc2cc3nc(-c4cccc5[nH]ncc45)nc(N4CCOCC4)c3s2)CC1 [Pictilisib] (partner 1 µM)
Method in brief: as §1

Bosutinib + Lapatinib = compound: COc1cc(Nc2c(C#N)cnc3cc(OCCCN4CCN(C)CC4)c(OC)cc23)c(Cl)cc1Cl [Bosutinib] + CS(=O)(=O)CCNCc1ccc(-c2ccc3ncnc(Nc4ccc(OCc5cccc(F)c5)c(Cl)c4)c3c2)o1 [Lapatinib] (partner 2 µM)
Method in brief: as §1

Bosutinib + Navitoclax = compound: COc1cc(Nc2c(C#N)cnc3cc(OCCCN4CCN(C)CC4)c(OC)cc23)c(Cl)cc1Cl [Bosutinib] + CC1(C)CCC(c2ccc(Cl)cc2)=C(CN2CCN(c3ccc(C(=O)NS(=O)(=O)c4ccc(N[C@H](CCN5CCOCC5)CSc5ccccc5)c(S(=O)(=O)C(F)(F)F)c4)cc3)CC2)C1 [Navitoclax] (partner 0.5 µM)
Method in brief: as §1

Bosutinib + Bortezomib = compound: COc1cc(Nc2c(C#N)cnc3cc(OCCCN4CCN(C)CC4)c(OC)cc23)c(Cl)cc1Cl [Bosutinib] + CC(C)C[C@H](NC(=O)[C@H](Cc1ccccc1)NC(=O)c1cnccn1)B(O)O [Bortezomib] (partner 0.002 µM)
Method in brief: as §1

Cell Line	relative viability (Bosutinib + OSI-027; first compound 0.01 µM)	relative viability (Bosutinib + OSI-027; first compound 0.03162 µM)	relative viability (Bosutinib + OSI-027; first compound 0.1 µM)	relative viability (Bosutinib + OSI-027; first compound 1 µM)	relative viability (Bosutinib + Pictilisib; first compound 0.01 µM)	relative viability (Bosutinib + Pictilisib; first compound 0.03162 µM)	relative viability (Bosutinib + Pictilisib; first compound 0.1 µM)	relative viability (Bosutinib + Pictilisib; first compound 1 µM)	relative viability (Bosutinib + Lapatinib; first compound 0.01 µM)	relative viability (Bosutinib + Lapatinib; first compound 0.03162 µM)	relative viability (Bosutinib + Lapatinib; first compound 0.1 µM)	relative viability (Bosutinib + Lapatinib; first compound 1 µM)	relative viability (Bosutinib + Navitoclax; first compound 0.01 µM)	relative viability (Bosutinib + Navitoclax; first compound 0.03162 µM)	relative viability (Bosutinib + Navitoclax; first compound 0.1 µM)	relative viability (Bosutinib + Navitoclax; first compound 1 µM)	relative viability (Bosutinib + Bortezomib; first compound 0.01 µM)	relative viability (Bosutinib + Bortezomib; first compound 0.03162 µM)	relative viability (Bosutinib + Bortezomib; first compound 0.1 µM)	relative viability (Bosutinib + Bortezomib; first compound 1 µM)
NCI-H647	0.661	0.741	0.724	0.496	0.508	0.436	0.432	0.372	1.06	1.16	1.09	0.53	1.25	1.23	1.09	0.82	1.06	1.06	0.919	0.405
NCI-H2009	0.681	0.799	0.746	0.522	0.997	0.866	0.927	0.557	0.905	1.02	1.05	0.716	1.22	1.2	1.21	1.08	1.17	1.08	1.1	0.795
EPLC-272H	0.262	0.34	0.312	0.342	0.375	0.293	0.36	0.426	1.19	0.931	1.02	1.04	1.05	1.09	1.15	1.35	0.76	0.817	0.911	0.9
NCI-H520	0.293	0.257	0.235	0.196	0.309	0.279	0.288	0.281	1.01	0.86	0.855	0.639	1.33	0.988	1.05	0.964	0.771	0.419	0.52	0.396
NCI-H2405	0.634	0.619	0.615	0.629	0.481	0.449	0.435	0.311	1.23	1.2	0.983	0.895	0.943	0.812	0.892	0.477	0.764	1.04	1.01	0.941
NCI-H2085	0.741	0.781	0.726	0.462	0.441	0.45	0.425	0.489	0.749	0.747	0.813	0.744	1.14	1.13	1.11	1.2	0.982	0.969	1.02	1.04
NCI-H322M	0.531	0.566	0.549	0.422	0.469	0.495	0.525	0.485	0.51	0.589	0.623	0.573	1.12	1.25	1.28	1.2	1.23	1.14	1.35	1.22
NCI-H1944	0.436	0.412	0.379	0.374	0.35	0.327	0.333	0.345	0.834	0.803	0.865	0.736	1.06	1.08	1.04	0.956				
LC-2-ad	0.878	0.917	0.806	0.847	0.571	0.45	0.459	0.419	0.99	0.92	1.05	1.01	0.476	0.54	0.52	0.468	1.05	0.98	1.02	1.14
NCI-H358	0.786	0.742	0.787	0.545	0.407	0.368	0.363	0.379	0.558	0.476	0.41	0.543								
NCI-H2170	0.7	0.684	0.732	0.654	0.348	0.359	0.301	0.271	0.268	0.268	0.282	0.282	0.527	0.67	0.702	0.468				
A-427	0.489	0.498	0.553	0.48	0.724	0.801	0.874	0.736	1.02	0.972	1	1.03	0.947	0.97	1.05	0.888	0.958	1.04	1.08	0.958
NCI-H1666	0.773	0.811	0.821	1.03	0.469	0.32	0.417	0.405	0.705	0.592	0.656	0.757	1	1.01	0.889	0.892	0.794	0.74	0.977	0.746
LOU-NH91	0.742	0.707	0.728	0.51	0.492	0.524	0.504	0.468	0.759	0.824	0.791	0.723	0.755	0.713	0.666	0.391	0.469	0.487	0.514	0.578
ABC-1	0.507	0.471	0.432	0.577	0.836	0.85	0.841	0.596	1.26	1.2	1.05	0.786					0.331	0.338	0.312	0.33
NCI-H1651	0.678	0.793	0.709	0.657	0.579	0.62	0.62	0.687	0.923	0.877	0.767	0.823	1	1.17	0.88	0.961	0.914	0.942	0.994	0.978
